Assay results as given in patent US20260055065A1, “PYRIDAZINONE COMPOUNDS WHICH MODULATE MUTANT PROTEINS FOR TREATING RESPIRATORY DISEASES” (The Hospital for Sick Children, priority 2022, published 2026).
“Also recorded” adds a separate entry of the source.

Assays:
Format in all cases: cell-based
F508del-CFTR = target: T1, F508del-CFTR (Homo sapiens, UniProt P13569, DEL508-508); test: Dose response, potentiation of forskolin-activated F508del-CFTR chloride channel activity in CFBE41o- cells (fluorescence membrane potential assay); settings: low temperature (27 degrees Celsius) correction, read-out: potency in potentiating cyclic AMP dependent F508del-CFTR chloride channel activity
T1 construct: F508del-CFTR was endogenously expressed in CFBE41o^− cells; endogenous in cells; host or cells: CFBE41o-
Protocol: In these studies, F508del-CFTR was endogenously expressed in CFBE41o^− cells and it's trafficking defect corrected by low temperature (27 degrees Celsius) incubation. The fold increase in cyclic AMP dependent F508del-CFTR mediated chloride channel activity induced by potentiator treatment was determined using the fluorescence-based, membrane potential difference assay previously described.

Wt-CFTR = Wt-CFTR (Homo sapiens, UniProt P13569); test: Ussing chamber short circuit current, primary human bronchial epithelial cultures; settings: 1 μM, after forskolin 100 nM
Protocol: The impact of SK-POT (compound 11) in potentiating Wt-CFTR mediated transepithelial chloride conduction in primary human bronchial epithelial cultures was then tested.

CFTR = target: T2, CFTR (Mustela putorius furo, UniProt Q07E16); test: Ussing chamber, primary bronchial epithelial cultures from adult ferret trachea; settings: 1 μM, after forskolin 100 nM
T2 construct: primary bronchial epithelial cultures prepared from adult ferret trachea; from tissue; host or cells: primary bronchial epithelial cultures from adult ferret trachea
Protocol: Student's “t” test was conducted.

[1] = test system: primary differentiated human bronchial epithelial cultures; test: Bead tracking assay of mucociliary movement, primary bronchial epithelial cultures exposed to cigarette smoke extract; settings: for mucostasis / bead velocity in CSE-treated cultures: CSE 2%, compound 1 μM for 24 hours, forskolin 10 μM
Protocol: Compound 11 was tested in an in-vitro model of COPD. In this model, primary differentiated human bronchial epithelial cultures were exposed to cigarette smoke extract (4,5). Exposure to cigarette smoke extract (CSE) led to mucostasis and slowed mucociliary movement (FIG. 1(A) and (B)). […] Changes in mucociliary movement were determined as in our previous publication (7), i.e., by tracking the speed of fluorescent beads added to the surface of the airway cultures. The relative rescue effect of Compound 11 compared favourably relative to the competitor, the FDA approved CFTR potentiator marketed as Ivacaftor (VX-770).
Mature bronchial epithelial cultures, seeded on 24-well transwell inserts, derived from non-smoker donors of variable ages were received from the University of Iowa and cultured at air-liquid interface (ALI) using UltraG medium. A total of 6 inserts per donor were cultured, and all inserts from a single donor were selected to receive chronic drug and toxin treatment. Ahead of chronic treatment, cultures were subject to mucomist to reduce the volume and viscosity of the mucous layer ahead of imaging. Cultures were first washed twice with 200 uL HBSS (Wisent) applied apically to the transwell, each wash for 10 minutes at 37 degrees and 5% CO2. Cells were then incubated with 10 μM N-acetyl-cysteine (source?) dissolved in HBSS (Wisent) for 30 minutes, followed by a final HBSS wash as described previously. The toxin treatment consisted of either cigarette smoke extract (CSE) prepared in 100% DMSO (University of Alabama at Birmingham), dissolved at a concentration of 2% (v/v) in UltraG medium, with an equivalent concentration of DMSO alone serving as a control. The chronic drug treatment was co-applied with the toxin treatment, which included either VX-770 (Vertex) or SK-POT, aka Compound 11 (both prepared in 100% DMSO) dissolved in UltraG medium at a final concentration of 1 μm. There were a total of 6 chronic treatments, with each of the 6 inserts per donor receiving a different chronic treatment. Bronchial epithelia were incubated with the chronic treatment, applied apically, for 24 hours at 37 degrees C. and 5% CO2. After 24 hours, green fluorescent microspheres (brand?) dissolved in HBSS at a concentration of 0.05% (v/v) were applied apically; cultures were incubated with the microspheres for 45 minutes. The toxin and potentiator treatments were carried forth into the microsphere solution.
Inserts were then imaged at room temperature by epifluorescence microscopy (Zeiss or Olympus). The basic replicate of the assay consists of a 5-second video captured in the green channel and 40-60 frames per second; Z-position was adjusted ahead of each video to ensure beads in the airway surface liquid stratum immediately above the cilia were being captured. 5 videos were captured per insert/conditions, representing the centre and 4 corners of the insert. 2 sets of 5 videos were captured per insert/condition: one at baseline, and one 20 minutes following CFTR stimulation by forskolin at a concentration of 10 μM. Inserts were incubated at room temperature after forskolin addition.
Videos were captured using Volocity software and exported as one TIF file per frame. Frames were then re-compiled into complete videos using Arivis 4D software. Using an algorithm as previously described in Wu et al. 2017, microspheres were highlighted by adjusting two parameters: fluorescence intensity and diameter. […]

T2 sequence (Q07E16 whole entry): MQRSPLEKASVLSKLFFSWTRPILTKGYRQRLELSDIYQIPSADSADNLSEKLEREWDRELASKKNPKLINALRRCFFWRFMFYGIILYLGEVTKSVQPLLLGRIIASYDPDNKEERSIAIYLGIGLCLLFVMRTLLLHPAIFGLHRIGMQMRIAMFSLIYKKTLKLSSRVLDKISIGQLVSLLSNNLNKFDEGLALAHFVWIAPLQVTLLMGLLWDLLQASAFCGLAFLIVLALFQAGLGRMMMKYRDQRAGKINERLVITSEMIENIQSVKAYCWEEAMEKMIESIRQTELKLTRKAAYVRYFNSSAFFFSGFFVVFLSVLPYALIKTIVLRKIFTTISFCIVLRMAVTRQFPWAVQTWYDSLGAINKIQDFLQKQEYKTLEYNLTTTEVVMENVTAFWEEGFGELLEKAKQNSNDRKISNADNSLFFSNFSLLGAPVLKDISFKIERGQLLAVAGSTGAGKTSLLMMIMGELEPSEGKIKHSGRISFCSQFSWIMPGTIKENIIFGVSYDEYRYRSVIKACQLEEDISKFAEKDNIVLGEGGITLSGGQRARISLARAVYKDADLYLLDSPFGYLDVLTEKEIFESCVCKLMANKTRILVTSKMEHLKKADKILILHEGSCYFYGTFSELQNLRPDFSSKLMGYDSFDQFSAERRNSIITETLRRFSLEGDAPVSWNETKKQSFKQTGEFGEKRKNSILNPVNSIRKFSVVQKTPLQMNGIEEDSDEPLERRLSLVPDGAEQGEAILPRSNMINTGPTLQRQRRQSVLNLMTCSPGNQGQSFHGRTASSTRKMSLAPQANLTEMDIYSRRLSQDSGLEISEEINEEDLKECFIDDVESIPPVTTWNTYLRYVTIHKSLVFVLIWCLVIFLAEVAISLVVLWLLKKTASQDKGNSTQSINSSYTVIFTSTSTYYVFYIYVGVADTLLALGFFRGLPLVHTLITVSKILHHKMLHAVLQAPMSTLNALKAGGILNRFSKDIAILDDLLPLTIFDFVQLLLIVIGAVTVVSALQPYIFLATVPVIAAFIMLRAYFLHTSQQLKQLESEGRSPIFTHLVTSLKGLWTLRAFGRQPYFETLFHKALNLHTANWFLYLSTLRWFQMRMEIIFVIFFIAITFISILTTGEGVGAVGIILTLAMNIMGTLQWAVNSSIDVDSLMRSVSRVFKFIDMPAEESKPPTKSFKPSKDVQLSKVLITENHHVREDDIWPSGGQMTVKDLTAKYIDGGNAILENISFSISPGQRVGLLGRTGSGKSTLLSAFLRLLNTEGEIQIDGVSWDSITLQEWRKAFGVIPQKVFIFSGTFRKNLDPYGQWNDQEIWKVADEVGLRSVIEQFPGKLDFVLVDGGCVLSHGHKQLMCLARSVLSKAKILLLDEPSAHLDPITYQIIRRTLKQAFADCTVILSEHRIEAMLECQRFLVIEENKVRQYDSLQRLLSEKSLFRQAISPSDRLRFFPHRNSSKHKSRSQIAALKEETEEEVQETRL
Wt-CFTR, sequence (P13569 whole entry): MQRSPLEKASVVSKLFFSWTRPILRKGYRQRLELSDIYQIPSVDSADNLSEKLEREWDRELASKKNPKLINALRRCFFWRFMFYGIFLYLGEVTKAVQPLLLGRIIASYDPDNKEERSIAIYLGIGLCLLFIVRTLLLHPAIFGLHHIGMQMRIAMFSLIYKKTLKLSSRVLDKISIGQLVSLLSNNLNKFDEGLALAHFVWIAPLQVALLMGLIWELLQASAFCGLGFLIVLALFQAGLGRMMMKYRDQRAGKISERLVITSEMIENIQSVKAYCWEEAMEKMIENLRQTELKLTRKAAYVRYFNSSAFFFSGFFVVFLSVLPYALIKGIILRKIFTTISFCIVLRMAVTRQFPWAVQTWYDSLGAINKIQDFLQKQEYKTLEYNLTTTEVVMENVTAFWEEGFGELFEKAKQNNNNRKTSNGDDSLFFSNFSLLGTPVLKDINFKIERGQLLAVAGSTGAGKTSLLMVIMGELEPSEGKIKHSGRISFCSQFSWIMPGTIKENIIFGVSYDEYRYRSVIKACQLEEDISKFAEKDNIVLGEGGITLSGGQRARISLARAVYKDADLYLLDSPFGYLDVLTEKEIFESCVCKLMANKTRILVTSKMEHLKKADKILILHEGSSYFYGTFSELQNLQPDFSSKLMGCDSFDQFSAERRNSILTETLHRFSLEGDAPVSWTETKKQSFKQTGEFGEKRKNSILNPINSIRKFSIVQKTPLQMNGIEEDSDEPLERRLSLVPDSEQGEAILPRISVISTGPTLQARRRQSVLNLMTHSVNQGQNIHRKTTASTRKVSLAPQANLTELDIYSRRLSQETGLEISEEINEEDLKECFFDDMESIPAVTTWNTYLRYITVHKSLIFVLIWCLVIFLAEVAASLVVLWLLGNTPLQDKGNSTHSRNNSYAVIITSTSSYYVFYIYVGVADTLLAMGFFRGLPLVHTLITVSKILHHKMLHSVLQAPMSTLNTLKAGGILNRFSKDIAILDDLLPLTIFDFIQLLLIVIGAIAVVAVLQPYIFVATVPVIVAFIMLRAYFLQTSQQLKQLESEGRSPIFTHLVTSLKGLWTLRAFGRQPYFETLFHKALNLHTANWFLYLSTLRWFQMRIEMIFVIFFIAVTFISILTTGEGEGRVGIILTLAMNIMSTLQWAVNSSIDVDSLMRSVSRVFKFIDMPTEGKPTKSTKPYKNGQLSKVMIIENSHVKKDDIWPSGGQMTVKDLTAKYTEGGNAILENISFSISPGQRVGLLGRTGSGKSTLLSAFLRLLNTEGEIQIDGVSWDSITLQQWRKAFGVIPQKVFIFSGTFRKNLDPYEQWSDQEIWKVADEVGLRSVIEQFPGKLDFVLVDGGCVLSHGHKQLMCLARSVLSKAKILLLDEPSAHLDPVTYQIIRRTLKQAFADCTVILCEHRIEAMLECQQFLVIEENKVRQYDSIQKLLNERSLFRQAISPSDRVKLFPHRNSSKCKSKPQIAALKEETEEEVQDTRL
T1 sequence (P13569 with tags, fused parts or gaps DEL508-508): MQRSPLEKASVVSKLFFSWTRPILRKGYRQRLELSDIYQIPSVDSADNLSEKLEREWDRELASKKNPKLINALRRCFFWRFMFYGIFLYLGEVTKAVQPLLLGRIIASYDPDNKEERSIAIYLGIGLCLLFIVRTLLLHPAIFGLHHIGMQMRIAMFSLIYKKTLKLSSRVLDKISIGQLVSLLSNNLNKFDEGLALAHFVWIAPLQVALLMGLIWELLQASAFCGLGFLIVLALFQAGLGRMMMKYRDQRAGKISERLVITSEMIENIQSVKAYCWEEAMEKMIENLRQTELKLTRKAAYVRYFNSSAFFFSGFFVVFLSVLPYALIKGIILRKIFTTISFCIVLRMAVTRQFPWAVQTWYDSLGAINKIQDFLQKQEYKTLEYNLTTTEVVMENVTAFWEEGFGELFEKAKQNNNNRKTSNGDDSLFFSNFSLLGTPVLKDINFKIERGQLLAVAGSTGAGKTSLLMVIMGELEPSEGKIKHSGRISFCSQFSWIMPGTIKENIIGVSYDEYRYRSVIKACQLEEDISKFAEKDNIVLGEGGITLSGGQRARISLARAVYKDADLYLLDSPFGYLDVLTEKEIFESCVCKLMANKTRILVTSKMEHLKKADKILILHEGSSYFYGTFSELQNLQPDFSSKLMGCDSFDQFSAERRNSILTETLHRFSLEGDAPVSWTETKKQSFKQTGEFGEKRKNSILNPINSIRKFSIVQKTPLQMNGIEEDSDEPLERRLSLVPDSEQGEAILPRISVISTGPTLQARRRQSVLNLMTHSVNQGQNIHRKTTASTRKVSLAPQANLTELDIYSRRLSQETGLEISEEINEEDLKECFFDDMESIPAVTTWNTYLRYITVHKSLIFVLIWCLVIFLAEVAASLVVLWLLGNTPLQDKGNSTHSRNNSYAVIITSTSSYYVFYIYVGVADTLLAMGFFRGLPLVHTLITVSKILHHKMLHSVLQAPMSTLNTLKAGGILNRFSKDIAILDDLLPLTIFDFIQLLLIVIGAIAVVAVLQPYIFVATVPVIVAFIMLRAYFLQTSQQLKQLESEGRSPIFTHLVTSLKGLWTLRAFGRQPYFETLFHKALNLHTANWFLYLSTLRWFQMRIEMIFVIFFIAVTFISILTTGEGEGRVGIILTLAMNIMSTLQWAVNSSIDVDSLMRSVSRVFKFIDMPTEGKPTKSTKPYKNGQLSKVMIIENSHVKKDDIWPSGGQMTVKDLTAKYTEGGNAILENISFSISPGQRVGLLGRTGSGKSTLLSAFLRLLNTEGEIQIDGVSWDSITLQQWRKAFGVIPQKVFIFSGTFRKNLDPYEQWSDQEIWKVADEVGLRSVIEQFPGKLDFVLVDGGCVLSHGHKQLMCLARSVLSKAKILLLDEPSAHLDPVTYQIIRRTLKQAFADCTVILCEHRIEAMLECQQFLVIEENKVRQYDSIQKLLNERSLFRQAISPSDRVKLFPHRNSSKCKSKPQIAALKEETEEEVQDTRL

EC50 (F508del-CFTR): 5 nM
forskolin activated short circuit currents mediated by Wt-CFTR (Wt-CFTR): potentiated
SMILES: CC(C)(C)c1ccc(-n2nc(-c3ccc(F)cc3)c(N3CCCCC3)c(N)c2=O)cc1O [Compound 11, 4-amino-2-(4-(tert-butyl)-3-hydroxyphenyl)-6-(4-fluorophenyl)-5-(piperidin-1-yl)pyridazin-3(2H)-one]
CFTR channel function in ferret bronchial tissue (CFTR): effective in augmenting CFTR channel function
mucostasis / bead velocity in CSE-treated cultures [1]: prevented the mucostasis induced by cigarette smoke extract; also recorded: rescued to control values
mucostasis / bead velocity in CSE-treated cultures ([1]; listed as SK-POT): significant increase in bead velocity
bead velocity under control conditions ([1]; no CSE, compound added with vehicle for 24 hours): Neither VX-770 nor Compound 11 had any impact on bead velocity
